From the supplement of paper PMC10307832

Compound: Cc1ccc(NC(=O)c2ccc(CN3CCN(C)CC3)cc2)cc1Nc1nc(-c2cccnc2)cs1 [Masitinib] + C[C@]1(O)C[C@@H](c2nc(-c3ccc4ccc(-c5ccccc5)nc4c3)c3c(N)nccn32)C1 [Linsitinib] (partner 1 µM)
Assay: relative viability (nuclei count vs DMSO), 5 days (fraction); higher = more cells survive
Details: first compound 0.01 µM
Procedure, shortened: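 One day after seeding in 1536-well plates, lung cancer cell lines were dosed by pin tool. Dosing was either single-drug or a fixed anchor-drug dose plus five library-drug doses (not always all listed) in √10 steps. After 5 days, nuclei were stained in one fix-and-stain step and counted on 4× images, and relative viability is the nuclei count of treated wells over that of vehicle wells, given as the median of duplicate plates.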

Row | Cell Line | relative viability
1 | LXF-289 | 0.804
2 | BEN | 1.04
3 | HARA | 0.894
4 | NCI-H441 | 0.563
5 | LCLC-97TM1 | 0.157
6 | NCI-H2023 | 0.597
7 | NCI-H460 | 0.934
8 | NCI-H727 | 0.228
9 | NCI-H520 | 1.12
10 | NCI-H2405 | 0.96
11 | SW 1573 | 0.689
12 | NCI-H1395 | 1.05
13 | 201T | 0.881
14 | NCI-H1975 | 0.995
15 | HCC-827 | 1.03
16 | NCI-H2347 | 0.758
17 | NCI-H1355 | 0.808
18 | NCI-H650 | 0.796
19 | CAL-12T | 0.769
20 | NCI-H1666 | 0.806
21 | EPLC-272H | 1.08
22 | NCI-H23 | 0.656
23 | NCI-H1437 | 1.1
24 | NCI-H322M | 0.975
25 | NCI-H1792 | 0.504
26 | NCI-H2085 | 0.787
27 | HCC-15 | 0.8
28 | PC-3 [JPC-3] | 0.969

Same assay, conditions: first compound 0.03162 µM

Row | Cell Line | relative viability
29 | HCC-44 | 0.487
30 | LXF-289 | 0.999
31 | BEN | 0.858
32 | HARA | 1.02
33 | NCI-H441 | 0.532
34 | LCLC-97TM1 | 0.151
35 | NCI-H2023 | 0.681
36 | A-427 | 1.06
37 | NCI-H460 | 0.934
38 | NCI-H727 | 0.268
39 | NCI-H1755 | 0.976
40 | NCI-H2405 | 1.01
41 | SW 1573 | 0.848
42 | NCI-H1395 | 1.09
43 | 201T | 0.977
44 | NCI-H1975 | 0.92

Row | Cell Line | relative viability
45 | HCC-827 | 0.969
46 | NCI-H2347 | 0.911
47 | NCI-H1355 | 0.697
48 | NCI-H650 | 0.752
49 | CAL-12T | 0.751
50 | NCI-H1666 | 0.774
51 | EPLC-272H | 1.26
52 | NCI-H23 | 0.58
53 | NCI-H1915 | 1.15
54 | NCI-H1437 | 0.991
55 | NCI-H322M | 0.736
56 | NCI-H1792 | 0.224
57 | NCI-H2085 | 0.914
58 | HCC-15 | 0.826
59 | NCI-H1944 | 1.14
60 | PC-3 [JPC-3] | 1

Same assay, conditions: first compound 0.1 µM

Row | Cell Line | relative viability
61 | HCC-44 | 0.648
62 | LXF-289 | 0.901
63 | BEN | 1.19
64 | HARA | 1.08
65 | NCI-H441 | 0.501
66 | LCLC-97TM1 | 0.197
67 | NCI-H2023 | 0.703
68 | NCI-H460 | 0.977
69 | NCI-H727 | 0.297
70 | NCI-H1755 | 1
71 | NCI-H520 | 1.15
72 | NCI-H2405 | 0.945
73 | SW 1573 | 0.985
74 | NCI-H1395 | 1.09
75 | 201T | 1.01
76 | NCI-H1975 | 1.03

Row | Cell Line | relative viability
77 | HCC-827 | 0.976
78 | NCI-H2347 | 0.867
79 | NCI-H1355 | 0.884
80 | NCI-H650 | 0.896
81 | CAL-12T | 0.94
82 | NCI-H1666 | 0.846
83 | EPLC-272H | 1.19
84 | NCI-H23 | 0.613
85 | NCI-H1915 | 1.09
86 | NCI-H1437 | 0.986
87 | NCI-H322M | 0.91
88 | NCI-H1792 | 0.533
89 | NCI-H2085 | 0.955
90 | HCC-15 | 0.941
91 | NCI-H1944 | 0.794
92 | PC-3 [JPC-3] | 0.951

Same assay, conditions: first compound 0.3162 µM

Row | Cell Line | relative viability
93 | HCC-44 | 0.568
94 | LXF-289 | 0.981
95 | BEN | 1.23
96 | HARA | 0.917
97 | NCI-H441 | 0.534
98 | LCLC-97TM1 | 0.144
99 | NCI-H2023 | 0.613
100 | A-427 | 1.18
101 | NCI-H460 | 1.26
102 | NCI-H727 | 0.281
103 | NCI-H1755 | 1.02
104 | NCI-H520 | 0.97
105 | NCI-H2405 | 0.882
106 | SW 1573 | 0.838
107 | NCI-H1395 | 0.959
108 | 201T | 0.851
109 | NCI-H1975 | 0.832

Row | Cell Line | relative viability
110 | HCC-827 | 0.935
111 | NCI-H2347 | 0.948
112 | NCI-H1355 | 0.743
113 | NCI-H650 | 0.981
114 | CAL-12T | 0.904
115 | NCI-H1666 | 0.781
116 | EPLC-272H | 1.18
117 | NCI-H23 | 0.525
118 | NCI-H1915 | 0.974
119 | NCI-H1437 | 1.04
120 | NCI-H322M | 0.681
121 | NCI-H1792 | 0.454
122 | NCI-H2085 | 1.01
123 | HCC-15 | 0.863
124 | NCI-H1944 | 1.12
125 | PC-3 [JPC-3] | 0.961

Same assay, conditions: first compound 1 µM

Row | Cell Line | relative viability
126 | HCC-44 | 0.666
127 | LXF-289 | 0.944
128 | BEN | 0.939
129 | HARA | 1.06
130 | NCI-H441 | 0.497
131 | LCLC-97TM1 | 0.181
132 | NCI-H2023 | 0.597
133 | A-427 | 1.07
134 | NCI-H460 | 1.07
135 | NCI-H727 | 0.196
136 | NCI-H1755 | 0.955
137 | NCI-H520 | 0.915
138 | NCI-H2405 | 0.9
139 | SW 1573 | 0.803
140 | NCI-H1395 | 1.02
141 | 201T | 1.01
142 | NCI-H1975 | 0.908

Row | Cell Line | relative viability
143 | HCC-827 | 0.935
144 | NCI-H2347 | 1.09
145 | NCI-H1355 | 0.801
146 | NCI-H650 | 0.806
147 | CAL-12T | 0.805
148 | NCI-H1666 | 0.718
149 | EPLC-272H | 1.01
150 | NCI-H23 | 0.493
151 | NCI-H1915 | 1.03
152 | NCI-H1437 | 1.07
153 | NCI-H322M | 0.912
154 | NCI-H1792 | 0.529
155 | NCI-H2085 | 0.726
156 | HCC-15 | 0.952
157 | NCI-H1944 | 1.17
158 | PC-3 [JPC-3] | 0.964
